Experimental findings from patent US20220062258A1, “Heterocyclic derivatives” (Merck Patent GmbH, priority 2019, published 2022) are described below.

This test has as its system HUVEC primary endothelial cells. In words: HUVEC proliferation assay (CyQUANT Direct). The class given is cell-based. The settings on record: Homo sapiens, 72 h, 3 days incubation. As for the experimental part:
HUVEC Proliferation Assay
Proliferation of HUVEC primary endothelial cells was used as cell-based mechanistical assay.^25 Applying the CyQUANT@ Direct Cell Proliferation Assay (Invitrogen C35011) which is based on a cell-permeant fluorescent DNA-binding dye, DNA content is used as a direct measure for cell number. Pooled HUVEC cells (Promocell C-12203) are cultivated in the medium supplied by Promocell (Cat No C-22020) for maximum 4 passages. For the assay 500 cells/well are seeded into black 384-well culture plates with clear bottom in 70 μl culture medium and incubated for 6 hours at 37° C., 5% CO2. 10 μl prediluted test compounds are added and cells incubated for 3 days at 37° C., 5% CO2 before measurement of DNA content. CyQUANT detection reagent is prepared according to the manufacturers protocol, 20 μl/well added and incubated at 37° C., 5% CO2 for at least 1 h before measurement of fluorescence at Envision multimode reader (Perkin-Elmer, Waltham) with excitation 480 nm and emission 535 nm (bottom read mode). The assay is performed as dose response with 10 compound dilutions. Inhibitory values (IC50) were determined using the program ASSAY ANALYZER® from GeneData (Basel, Switzerland).

For `O=C1CCC(N2C(=O)c3ccc(NCCOCCOCCOCCNC(=O)c4cc5cc(N6CC[C@](O)(C(=O)NCc7cc(F)cc(F)c7)C6=O)ccc5[nH]4)cc3C2=O)C(=O)N1` (stereo partly drawn) [Compound A42, 5-[(3S)-3-{[(3,5-difluorophenyl)methyl]carbamoyl}-3-hydroxy-2-oxopyrrolidin-1-yl]-N-(2-{2-[2-(2-{[2-(2,6-dioxopiperidin-3-yl)-1,3-dioxo-2,3-dihydro-1H-isoindol-5-yl]amino}ethoxy)ethoxy]ethoxy}ethyl)-1H-indole-2-carboxamide], the midpoint of inhibition, the IC50, lay at 4.6 µM.

`O=C1CCC(N2C(=O)c3ccc(C#CCOCCOCCOCCOCCNC(=O)c4cc5cc(N6CC[C@](O)(C(=O)NCc7cc(F)cc(F)c7)C6=O)ccc5[nH]4)cc3C2=O)C(=O)N1` (stereo partly drawn) [Compound A43, 5-[(3S)-3-{[(3,5-difluorophenyl)methyl]carbamoyl}-3-hydroxy-2-oxopyrrolidin-1-yl]-N-{15-[2-(2,6-dioxopiperidin-3-yl)-1,3-dioxo-2,3-dihydro-1H-isoindol-5-yl]-3,6,9,12-tetraoxapentadec-14-yn-1-yl}-1H-indole-2-carboxamide]: the IC50 is 7.1 µM.

Turning to `O=C1CCC(N2C(=O)c3cccc(NCCOCCOCCOCCOCCNC(=O)c4cc5cc(N6CC[C@](O)(C(=O)NCc7cc(F)cc(F)c7)C6=O)ccc5[nH]4)c3C2=O)C(=O)N1` (stereo partly drawn) [Compound A44, 5-[(3S)-3-{[(3,5-difluorophenyl)methyl]carbamoyl}-3-hydroxy-2-oxopyrrolidin-1-yl]-N-(14-{[2-(2,6-dioxopiperidin-3-yl)-1,3-dioxo-2,3-dihydro-1H-isoindol-4-yl]amino}-3,6,9,12-tetraoxatetradecan-1-yl)-1H-indole-2-carboxamide], the IC50 amounted to 7 µM.

As for `CN(CCOCCOCCOCCOCCOCCN(C)c1cccc2c1C(=O)N(C1CCC(=O)NC1=O)C2=O)C(=O)c1cc2cc(N3CC[C@](O)(C(=O)NCc4cc(F)cc(F)c4)C3=O)ccc2[nH]1` (stereo partly drawn) [Compound A45, 5-[(3S)-3-{[(3,5-difluorophenyl)methyl]carbamoyl}-3-hydroxy-2-oxopyrrolidin-1-yl]-N-{2-[2-(2,6-dioxopiperidin-3-yl)-1,3-dioxo-2,3-dihydro-1H-isoindol-4-yl]-5,8,11,14,17-pentaoxa-2-azanonadecan-19-yl}-N-methyl-1H-indole-2-carboxamide], inhibition was half-maximal at 0.61 µM (IC50).

For `O=C1CCC(N2C(=O)c3cccc(C#CCOCCOCCOCCOCCOCCNC(=O)c4cc5cc(N6CC[C@](O)(C(=O)NCc7cc(F)cc(F)c7)C6=O)ccc5[nH]4)c3C2=O)C(=O)N1` (stereo partly drawn) [Compound A46, 5-[(3S)-3-{[(3,5-difluorophenyl)methyl]carbamoyl}-3-hydroxy-2-oxopyrrolidin-1-yl]-N-{18-[2-(2,6-dioxopiperidin-3-yl)-1,3-dioxo-2,3-dihydro-1H-isoindol-4-yl]-3,6,9,12,15-pentaoxaoctadec-17-yn-1-yl}-1H-indole-2-carboxamide], the IC50 is more than 30 µM.

`CN(CCOCCOCCOCCOCCN(C)c1ccc2c(c1)C(=O)N(C1CCC(=O)NC1=O)C2=O)C(=O)c1cc2cc(N3CC[C@](O)(C(=O)NCc4cc(F)cc(F)c4)C3=O)ccc2[nH]1` (stereo partly drawn) [Compound A47, 5-[(3S)-3-{[(3,5-difluorophenyl)methyl]carbamoyl}-3-hydroxy-2-oxopyrrolidin-1-yl]-N-{2-[2-(2,6-dioxopiperidin-3-yl)-1,3-dioxo-2,3-dihydro-1H-isoindol-5-yl]-5,8,11,14-tetraoxa-2-azahexadecan-16-yl}-N-methyl-1H-indole-2-carboxamide] gave a half-maximal inhibitory concentration (IC50) of 0.24 µM.

As for `O=C1CCC(N2C(=O)c3ccc(NCCOCCOCCOCCN4CCN(C(=O)c5cc6cc(N7CC[C@](O)(C(=O)NCc8cc(F)cc(F)c8)C7=O)ccc6[nH]5)CC4)cc3C2=O)C(=O)N1` (stereo partly drawn) [Compound A48, (3S)—N-[(3,5-difluorophenyl)methyl]-1-{2-[4-(2-{2-[2-(2-{[2-(2,6-dioxopiperidin-3-yl)-1,3-dioxo-2,3-dihydro-1H-isoindol-5-yl]amino}ethoxy)ethoxy]ethoxy}ethyl)piperazine-1-carbonyl]-1H-indol-5-yl}-3-hydroxy-2-oxopyrrolidine-3-carboxamide], the half-maximal inhibitory concentration (IC50) was 0.085 µM.

A word on the IC50: it is the concentration that gives 50% inhibition. High values mean weaker potency, low ones greater potency.
